Common to all, as to test: Substrate kinetics, coupled assay
Common to all, as to type: biochemical

One test deals with T1, PfPNP His7Phe (Plasmodium falciparum, UniProt Q8I3X4, H7F).
T1 construct: made in house; host or cells: Escherichia coli Top 10
T1 sequence (Q8I3X4 1-245 H7F): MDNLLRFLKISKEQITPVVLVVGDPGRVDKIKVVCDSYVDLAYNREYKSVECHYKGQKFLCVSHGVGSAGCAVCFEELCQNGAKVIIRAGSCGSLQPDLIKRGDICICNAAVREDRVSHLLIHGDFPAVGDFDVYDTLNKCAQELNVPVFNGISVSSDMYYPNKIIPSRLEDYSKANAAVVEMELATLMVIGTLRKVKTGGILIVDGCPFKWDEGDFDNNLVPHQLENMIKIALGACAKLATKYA
The conditions noted are these: for Km / kcat: substrate = label. Here is the method: (§1) Kinetic assays were completed in 50 mM KH2PO4 at pH 7.4 measuring phosphorylysis of inosine or MTI by PNP in a coupled reaction with 60 milliunits/ml xanthine oxidase to convert hypoxanthine to uric acid. Formation of uric acid was measured at 293 nm wavelength (E293 = 12.9 mM^−1 cm^−1), [20]. In cases where activity for MTI was low, increased protein concentration (10 µg/ml) was used to check enzyme function. Assays were performed with excess substrate in the presence of inhibitors. Inhibition studies measured both initial (Ki) and slow onset inhibition (Ki*) for inhibitors. The initial onset inhibition was analyzed by using the following equation: ν ο = (k cat×S)/(K m(1+I/Ki)+S), ν ο is the steady state rate, k cat catalytic rate, S is substrate concentration, Km is Michealis constant for inosine, I is inhibitor concentration, and Ki is the equilibrium dissociation constant.

For the next test, the target named is T2, PfPNP Tyr160Ala (Plasmodium falciparum, UniProt Q8I3X4, Y160A).
T2 construct: made in house; host or cells: Escherichia coli Top 10
T2 sequence (Q8I3X4 1-245 Y160A): T1 sequence (Q8I3X4 1-245 H7F) with F7H, Y160A
The conditions noted are these: for Km / kcat / reduced catalytic efficiency compared to wild-type PfPNP: substrate = label. Here is the method: as §1

The target of a further test is T3, PfPNP Tyr47Ala (Plasmodium falciparum, UniProt Q8I3X4, Y47A).
T3 construct: made in house; host or cells: Escherichia coli Top 10
T3 sequence (Q8I3X4 1-245 Y47A): T1 sequence (Q8I3X4 1-245 H7F) with F7H, Y47A
The conditions noted are these: for Km / kcat: substrate = label. The method, then:
as §1

Another test deals with T4, PfPNP Val66Ala (Plasmodium falciparum, UniProt Q8I3X4, V66A).
T4 construct: made in house; host or cells: Escherichia coli Top 10
T4 sequence (Q8I3X4 1-245 V66A): T1 sequence (Q8I3X4 1-245 H7F) with F7H, V66A
The conditions noted are these: for Km / kcat: substrate = label. The method, then:
as §1

The target of a further test is T5, PfPNP Val66Ile (Plasmodium falciparum, UniProt Q8I3X4, V66I).
T5 construct: made in house; host or cells: Escherichia coli Top 10
T5 sequence (Q8I3X4 1-245 V66I): T1 sequence (Q8I3X4 1-245 H7F) with F7H, V66I
Here is the method:
as §1

For the next test, the target named is T6, PfPNP Val66Ile/Tyr160Phe (Plasmodium falciparum, UniProt Q8I3X4, V66I/Y160F).
T6 construct: made in house; host or cells: Escherichia coli Top 10
T6 sequence (Q8I3X4 1-245 V66I/Y160F): T1 sequence (Q8I3X4 1-245 H7F) with F7H, V66I, Y160F
The conditions noted are these: for Km / kcat: substrate = label. Here is the method:
as §1

The target of the next test is T7, PfPNP Val73Ile (Plasmodium falciparum, UniProt Q8I3X4, V73I).
T7 construct: made in house; host or cells: Escherichia coli Top 10
T7 sequence (Q8I3X4 1-245 V73I): T1 sequence (Q8I3X4 1-245 H7F) with F7H, V73I
The conditions noted are these: for Km / kcat: substrate = label. The method, then: as §1

The target of another test is T8, PfPNP Val73Ile/Tyr160Phe (Plasmodium falciparum, UniProt Q8I3X4, V73I/Y160F).
T8 construct: made in house; host or cells: Escherichia coli Top 10
T8 sequence (Q8I3X4 1-245 V73I/Y160F): T1 sequence (Q8I3X4 1-245 H7F) with F7H, V73I, Y160F
The conditions noted are these: for Km / kcat: substrate = label. The method, then: as §1

Where a chain is given by its changes, count along the chain named.

Regarding `OC[C@H]1O[C@@H](n2cnc3c(O)ncnc32)[C@H](O)[C@@H]1O` [Inosine, inosine], the “Ino/MTI kcat/Km Ratio” value at PfPNP His7Phe was 0.3; at PfPNP Tyr160Ala it was 0.5; on PfPNP Tyr47Ala, 9.3; at PfPNP Val66Ala, 0.5; on PfPNP Val66Ile it was 1.4; at PfPNP Val66Ile/Tyr160Phe, 39. Further, the “Ino/MTI kcat/Km Ratio” value is recorded as 2.0 on PfPNP Val73Ile and 35 at PfPNP Val73Ile/Tyr160Phe. The Km turned out to be 353 ± 22 µM on PfPNP His7Phe; 5400 ± 120 µM on PfPNP Tyr160Ala; 200 µM at PfPNP Tyr47Ala; 13 ± 10 µM at PfPNP Val66Ala; 16 ± 4 µM on PfPNP Val66Ile (substrate = label); 6.2 ± 3.5 µM on PfPNP Val66Ile/Tyr160Phe. The Km on PfPNP Val73Ile came out at 13 ± 2 µM; on PfPNP Val73Ile/Tyr160Phe, 3.6 ± 1.3 µM. For the same compound, the kcat at PfPNP His7Phe was found to be 2.2 ± 0.7 s⁻¹; at PfPNP Tyr160Ala, 0.1 ± 0.0 s⁻¹; at PfPNP Tyr47Ala it was 0.04 ± 0.00 s⁻¹; at PfPNP Val66Ala, 2.4 ± 0.6 s⁻¹; at PfPNP Val66Ile (substrate = label), 2.0 ± 0.2 s⁻¹; at PfPNP Val66Ile/Tyr160Phe, 1.2 ± 0.16 s⁻¹. Further, the kcat at PfPNP Val73Ile turned out to be 1.9 ± 0.7 s⁻¹; at PfPNP Val73Ile/Tyr160Phe it was 0.59 ± 0.13 s⁻¹. Also, on PfPNP Tyr160Ala, the “reduced catalytic efficiency compared to wild-type PfPNP” value is on record as roughly 1000 fold.
With 5′-methylthioinosine, the Km at PfPNP His7Phe turned out to be 9.6 ± 8 µM; at PfPNP Tyr160Ala it was 200 ± 59 µM; on PfPNP Tyr47Ala, 960 µM; on PfPNP Val66Ala it was 0.3 ± 0.4 µM; on PfPNP Val66Ile/Tyr160Phe, 11 ± 2 µM; at PfPNP Val73Ile it was 11 ± 8 µM. Also, the Km on PfPNP Val73Ile/Tyr160Phe worked out at 60 ± 33 µM. For the same compound, the kcat was 0.21 ± 0.03 s⁻¹ at PfPNP His7Phe; 0.09 ± 0.01 s⁻¹ on PfPNP Tyr160Ala; 0.02 ± 0 s⁻¹ at PfPNP Tyr47Ala; 0.12 ± 0.04 s⁻¹ at PfPNP Val66Ala; 1.2 ± 0.7 s⁻¹ on PfPNP Val66Ile (substrate = label); 0.05 ± 0.00 s⁻¹ on PfPNP Val66Ile/Tyr160Phe. The results for the kcat on PfPNP Val73Ile and at PfPNP Val73Ile/Tyr160Phe were 0.81 ± 0.03 s⁻¹ and 0.28 ± 0.04 s⁻¹, respectively. At PfPNP Tyr160Ala, the “reduced catalytic efficiency compared to wild-type PfPNP” value was roughly 1000 fold.

The term Km denotes the concentration of substrate that gives half-maximal velocity. Usually kcat stands for the maximal rate divided by the concentration of active sites.
